These results are taken from patent publication US10548915B2, “Combination therapy for EV71 infection” (SUN JET BIOTECHNOLOGY INC., priority 2015, dated 2020).

This test relates to EV71 replication in RD cells. In words: anti-VP1 western blot of EV71-infected RD cells (VP1/vimentin ratio normalized to non-treated infected cells). In kind it is cell-based, enterovirus type 71 (EV71 strain 4643/TW/1998). Here is the method:
Antibodies—Used antibodies included rabbit anti-VP1 (GTX70007, 1:2000, GeneTex), mouse anti-vimentin (sc-6260, 1:1000, Santa Cruz).
Cell lines, viruses and viral infection—RD (Human rhabdomyosarcoma, ATCC® CCL-136™) cells were grown in Dulbecco's modified Eagle's medium (Sigma, USA) containing 10% fetal bovine serum (Invitrogen, USA), at 5% CO2 and 37° C. EV71 strain 4643/TW/1998 (GeneBank accession number 1N544418.1) was kindly provided by Dr. Lih-Hwa Hwang at National Yang-Ming University, Taiwan. Viruses were added to RD cells which were cultured in DMEM containing 2% FBS. The newly generated viruses were titrated by cytopathology assay. For viral infection, cells were seeded at 80% confluency in 6-well dishes and grown overnight. Before challenge with viruses of 5 multiplicity of infection (MOI), old medium was replaced with serum-free medium. After 1 h adsorption of viruses, infected cells were cultured in DMEM with 10% FBS.
Western blotting—Protein extracted from RD cells were resolved with electrophoresis. Protein were blotted onto a nitrocellulose membrane eletrophoretically and incubated with indicated antibodies. The immunoreactive bands were visualized with LAS-4000 (FUJIFLIM).

[1] abbreviates: single compound at 0.005 μM (so in the source), RD cells, EV71 MOI 5.
Setting [2] is: single compound at 5 μM, RD cells, EV71 MOI 5.

Consider `CC(=O)OC[C@H]1O[C@@H]([S-])[C@H](OC(C)=O)[C@@H](OC(C)=O)[C@@H]1OC(C)=O.CCP(CC)CC.[Au+]` [auranofin], for which the “VP1 expression relative to non-treated infected cells” value is recorded as 0.9 under setting [1] and 0.05 under setting [2]. The “anti-EV71 effect (VP1 expression), in words” value (“anti-EV71 effect” below) is, setting by setting: (single compound at 0.05 μM) “minimal effects”; (single compound at 5 μM) “strong anti-EV71”.

Consider `O=C(Nc1ccc([N+](=O)[O-])cc1Cl)c1cc(Cl)ccc1O` [niclosamide], for which the “VP1 expression relative to non-treated infected cells” value stood at 0.9 under setting [1] and 0.2 under setting [2]. Also, the “anti-EV71 effect” value reads like this: (single compound at 0.05 μM) “minimal effects”; (single compound at 5 μM) “strong anti-EV71”.

Consider `CC[C@H]1CN2CCc3cc(OC)c(OC)cc3[C@@H]2C[C@@H]1C[C@H]1NCCc2cc(OC)c(OC)cc21` [emetine], for which the “anti-EV71 effect” value (single compound at 0.05 μM) is listed as “VP1 expression returning” and the “anti-EV71 effect” value (single compound at 0.5-5 μM) is given as “strong blockage of EV71 expression”.

`C[C@@H]1O[C@@H](O[C@H]2C[C@@H](O)[C@]3(CO)[C@H]4[C@H](O)C[C@]5(C)[C@@H](C6=CC(=O)OC6)CC[C@]5(O)[C@@H]4CC[C@]3(O)C2)[C@H](O)[C@H](O)[C@H]1O` [ouabain]: the “anti-EV71 effect” value is given as “VP1 expression returning” (single compound at 0.005 μM) and “strong blockage of EV71 expression” (single compound at 0.05-5 μM).

In the case of `CNCC[C@H](Oc1ccc(C(F)(F)F)cc1)c1ccccc1` [fluoxetine, S-(+)-fluoxetine], for the setting “single compound, all tested concentrations (5, 0.5, 0.05 μM)”, the “VP1 expression relative to non-treated infected cells” value is reported as 0.9-1.0.
